We go through four compounds from patent publication US20150366824A1, “INDUCTION OF ESTROGEN RECEPTOR BETA BY CHOLESTEROL BIOSYNTHESIS INHIBITORS AND METHODS OF TREATMENT OF CANCER” (THE CURATORS OF THE UNIVERSITY OF MISSOURI, priority 2012, published 2015).

In one data set the test system is BT-474 cells. Briefly: Sulforhodamine B (SRB) cell viability assay with ERβ-specific ligands. The class given is cell-based, human. The settings on record: for cell viability: Ro 48-8071 combined with ERβ agonist DPN: BT-474, 10 nM Ro 48-8071 ± 1 nM DPN, 48 h; for cell viability: Ro 48-8071 combined with ERβ antagonist PHTPP: BT-474, 10 nM Ro 48-8071 ± 10 or 100 nM PHTPP, 24 h. The procedure: FIG. 6. […] BT-474 cells were treated with 10 nM Ro 48-8071±1 nM DPN, or with DPN alone. Cell viability was determined after 48 h using the SRB assay.
FIG. 7. […] BT-474 cells treated with 10 nM Ro 48-8071 for 24 h±10 or 100 nM PH, or with PHTPP alone. Cell viability was determined after 24 h as described previously. […] The anti-proliferative effects of Ro 48-8071 in breast cancer cells is reduced when it is combined with ERβ antagonist.
The sulforhodamine B (SRB) assay was employed to evaluate the effect potent cholesterol biosynthesis inhibitor Ro 48-8071 alone or in combination with ERβ-specific ligands on viability of breast cancer cells, with slight modification of the original procedure established at NCI. Ro 48-8071, and ERβ-specific ligands (either an agonist DPN (diarylpropionitrile), or an antagonist PHTPP (4-[2-phenyl-5,7-bis(trifluoromethyl) pyrazolo[1,5-a]pyrimidin-3-yl]phenol)) (“PH”) were used in BT-474, T47-D, MDA-MB-231, and BT-20 human breast cancer cells in this study.
Accordingly, cells were seeded in 96-well plates in 100 μL culture medium and incubated overnight at 37° C. with 5% CO2. Culture medium was removed after 24 h, and the attached cells were washed with DMEM/F12 medium and treated by Ro 48-8071 alone or with ERβ-specific ligands at various concentrations for 24-48 hrs. […]
The surviving or adherent cells were fixed in situ by withdrawing the growth medium and adding 100 μL of PBS and 100 μL of 50% cold trichloroacetic acid and then incubating at 4° C. for 1 h. Attached cells (that had survived) were washed 5 times with ice-water, dried at room temperature (RT), and then stained with 50 μL […] SRB for 8 min at room temperature (RT). Unbound dye was removed by washing 5 times with cold 1% acetic acid, and the plates were dried at RT. Bound stain was solubilized with 150 μL 10 mM Tris buffer, and absorbance of samples measured at 520 nm with a SpecTRA MAX 190 microplate reader (Sunnyvale, Calif.). Six wells were used for each concentration, and each experiment was performed at least twice.

For the next data set, the target named is T1, OSC (Homo sapiens, UniProt P48449).
T1 sequence (P48449 1-732): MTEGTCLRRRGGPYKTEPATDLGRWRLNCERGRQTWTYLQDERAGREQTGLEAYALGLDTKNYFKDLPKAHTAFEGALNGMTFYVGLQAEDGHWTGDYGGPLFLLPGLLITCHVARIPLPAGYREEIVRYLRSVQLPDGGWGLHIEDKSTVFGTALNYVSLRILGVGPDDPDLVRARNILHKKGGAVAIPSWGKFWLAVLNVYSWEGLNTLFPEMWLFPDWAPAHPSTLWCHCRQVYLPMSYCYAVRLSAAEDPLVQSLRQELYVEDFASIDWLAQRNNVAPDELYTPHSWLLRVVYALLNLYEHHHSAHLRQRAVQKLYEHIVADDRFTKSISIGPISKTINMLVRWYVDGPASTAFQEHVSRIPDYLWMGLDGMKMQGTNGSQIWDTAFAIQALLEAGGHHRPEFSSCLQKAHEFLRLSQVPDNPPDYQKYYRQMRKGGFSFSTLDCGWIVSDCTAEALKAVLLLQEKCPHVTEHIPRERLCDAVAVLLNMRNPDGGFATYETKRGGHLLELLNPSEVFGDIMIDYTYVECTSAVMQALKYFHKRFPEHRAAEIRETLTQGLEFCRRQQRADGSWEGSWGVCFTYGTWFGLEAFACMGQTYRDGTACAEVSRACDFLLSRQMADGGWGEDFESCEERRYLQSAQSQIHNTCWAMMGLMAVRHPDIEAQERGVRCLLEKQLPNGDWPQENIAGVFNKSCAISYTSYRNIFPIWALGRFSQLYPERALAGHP
The settings on record: cited from earlier work.

A further data set concerns ERβ. Description: Western blot analysis of ERβ protein in breast cancer cells. The class given is cell-based, human. Particulars: for expression of ERβ protein: treatment for six hours, dose-dependent. The method, then: (§1) Cells used in these experiments included both the ERα+ve as well as ERα-ve cells, including triple negative types which are very aggressive growing. The ERα+ve cells used were T47-D and BT-474 cells. The ERα-ve cells used were MDA-MB-231, BT-20 and SkBr-3 cells. All cells were grown in media as specified in the data sheet from A TCC, provider of cell lines.
(§2) Whole cell extracts of breast cancer cells were prepared using a whole cell extract kit (Active Motif, Carlsbad, Calif.). Briefly, after treatment with Ro 48-8071, cells were washed once with PBS, harvested with 0.05% trypsin-EDT A, and centrifuged at 200 g at 4° C. for 5 min. Cell pellets were resuspended in lysis buffer and supernatant was transferred into pre-chilled microcentrifuge tubes and incubated on ice for 30 minutes. Samples were centrifuged at 14,000×g at 4° C. for 20 minutes, and supernatant was transferred to pre-chilled microcentrifuge tubes. Aliquots of samples were stored at −80° C. For western blot analysis, samples containing 50 μg of protein were separated in a NuPAGE 10% Bis-Tris Gel (Invitrogen, Carlsbad, Calif.).
(§3) Electrophoresis was performed at 120 V for 2 h using NuPAGE MES-SDS Running Buffer. Separated proteins were transferred to polyvinylidene difluoride membranes (BioRad Laboratories, Hercules, Calif.) at 35 V for 1.5 h.
(§4) Blots were blocked at room temperature (RT) for 1 hr in TBS containing 0.1% Tween 20 (TBS-T) and 5% nonfat dry milk and incubated with antibodies for ERα (dilution 1:200) for 2 h at room temperature, and ERβ (dilution 1:150) at 4° C. overnight. Blots were washed 3 times with TBS-T and incubated with secondary antibody for 1 h at RT before being washed a further 7 times with TBS-T.
(§5) Immunoreactive bands were visualized using an ECL Plus detection kit (Amersham, Pharmacia Biotech, Arlington Heights, Ill.). Membranes were stripped and re-blotted for beta-actin (Sigma), which was used as a control for protein loading. β-actin was used as a loading control to determine amount of total protein loaded in each lane.
(In general: Immunoblotting shows a protein as a band on a membrane.)

The test system of a further data set is ERα. Briefly: Western blot analysis of ERα protein in breast cancer cells. The class given is cell-based, human. The settings on record: for expression of ERα protein: treatment for six hours, dose-dependent. The method, then: as §1, §2, §3, §4, §5
The subject of a further data set is Bcl-2. Description: Western blot analysis of Bcl-2 protein in T47-D breast cancer cells. The class given is cell-based, human. Particulars: treatment for six hours.
Another data set relates to T47-D cells. Description: SRB cell viability assay after ERβ siRNA knockdown. The settings on record: 60 nM ERβ siRNA, Ro 48-8071 10 nM, 48 h. The class given is cell-based, human. The procedure:
FIG. 5. […] T47-D cells were treated with either ERβ siRNA (30 and 60 nM; siERβ, Santa Cruz), scrambled RNA (siC) or transfection reagent alone (C) for 72 h (upper panel). In the group treated with 60 nM siRNA, cells were treated with Ro 48-8071 (10 nM) or vehicle alone (C) for 48 h (lower panel) and tumor cell viability was determined using SRB assay as described.
ERβ siRNA (human) and control siRNA were obtained from Santa Cruz Biotechnology, Inc. (Santa Cruz, Calif., e.g. catalog no.s SC-35325 and SC-37007). ERβ siRNA is a pool of 3 target-specific 20-25 nt siRNA designed to knock down ERβ gene expression.
Transfection reagent, oligonucleotides and medium, Opti-MEM were from Invitrogen (Carlsbad, Calif.). The day before transfection, cells were seeded in six-well plates at a density of 8×10̂4 cells per well with 10% FBS DMEM/F12 medium.
To make solution A, ERβ siRNA was diluted in Opti-MEM, resulting in a final concentration of 30 or 60 nM in 100 μl/well and incubate for 5 min at room temperature (RT). […]
The surviving or adherent cells were fixed in situ by withdrawing the growth medium and adding 100 μL of PBS and 100 μL of 50% cold trichloroacetic acid and then incubating at 4° C. for 1 h. […] Bound stain was solubilized with 150 μL 10 mM Tris buffer, and absorbance of samples measured at 520 nm with a SpecTRA MAX 190 microplate reader (Sunnyvale, Calif.). […]

Data set [1] has as its system human breast cancer xenografts. Description: Human breast cancer xenografts in nude mice. The class given is in vivo. The procedure:
Female athymic nu/nu nude mice, 5 to 6 weeks-old (18-22 g) may be purchased from a number of suppliers, such as Harland Sprague-Dawley, Inc. Nude mice are inoculated with 17β-estradiol pellets (1.7 mg/pellet, 60 days release) 48 hours before inoculating tumor cells. BT-474 human breast cancer cells, 5×10^6 in 0.15 ml solution mixed with matrigel and DMEM/F12 medium (4/1, v/v) are injected into each flank of mouse subcutaneously and both flanks of each mouse are injected. When tumor volume reaches around 100 mm3, animal are randomly assigned to three groups and the treatment started with RO 48-8071 (5 mg/kg/day or 10 mg/kg/day) via tail-vein injection for five days, followed by same treatment every other day for five additional times Animals in control group receive the vehicle alone under identical conditions. Tumor volumes are measured by a digital caliper and calculated using the formula (L×W×H)×0.5236.
(In general: In xenograft studies the graft and the host belong to different species.)

Where [2] appears, read: low dose, 10 or 100 nM, seven days.

Each structure is given as a SMILES string.

As for `N#CC(Cc1ccc(O)cc1)c1ccc(O)cc1` (stereo not drawn) [DPN, 2,3-bis(4-hydroxyphenyl)-propionitrile], in the data set with BT-474 cells, the “cell viability: Ro 48-8071 combined with ERβ agonist DPN” value is recorded as “potentiates the ability of Ro 48-8071 to reduce viability”.

Regarding `Oc1ccc(-c2c(-c3ccccc3)nn3c(C(F)(F)F)cc(C(F)(F)F)nc23)cc1` [PHTPP, 4-[2-phenyl-5,7-bis(trifluoromethyl)pyrazolo[1,5-a]pyrimidin-3-yl]phenol], the “cell viability: Ro 48-8071 combined with ERβ antagonist PHTPP” value in the data set with BT-474 cells is “blocks the anti-proliferative effect of Ro 48-8071”.

For the compound `C=CCN(C)CCCCCCOc1ccc(C(=O)c2ccc(Br)cc2)c(F)c1` [Ro 48-8071, (4-bromophenyl)[2-fluoro-4-[[6-(methyl-2-propenylamino)hexyl]oxy]phenyl]-methanone], the “OSC inhibition in words” value on OSC was “potent inhibitor of OSC”. Further, the “expression of ERβ protein” value with ERβ (BT-474 breast cancer cells) and in the data set on ERβ (T47-D breast cancer cells) was “induced” throughout. Also, the “expression of ERβ” value is given as “stimulates expression of ERβ” in the data set with ERβ (ERα-negative (triple-negative) BT-20 cells), “stimulates expression of ERβ” in the data set on ERβ (ERα-negative (triple-negative) MDA-MB-231 cells) and “induced” with ERβ (setting [2]). Also, the “expression of ERα protein” value with ERα (BT-474 breast cancer cells) and in the data set on ERα (T47-D breast cancer cells) was “suppressed” each time. Moreover, in the data set with ERα (setting [2]), the “expression of ERα” value is “suppressed”. The “expression of Bcl-2 protein” value in the data set on Bcl-2 is on record as “decreased with increasing dose”. In addition, in the data set on BT-474 cells, the “cell viability: Ro 48-8071 combined with ERβ agonist DPN” value is “increased cell death more effectively (additively)”. The “cell viability: Ro 48-8071 combined with ERβ antagonist PHTPP” value with BT-474 cells is on record as “reduced”. Also, the “tumor cell viability: effect of ERβ knockdown on the anti-proliferative effect” value in the data set with T47-D cells is “blocked the anti-proliferative effect”. In addition, the “growth of human breast cancer xenografts” value in data set [1] is recorded as “inhibit growing of human breast cancer xenografts”. Besides, the “toxicity in xenograft-bearing nude mice” value in data set [1] was “without toxicity”.

As for `CCN(CC)CCO[C@H]1CC[C@@]2(C)C(=CC[C@@H]3[C@@H]2CC[C@]2(C)C(=O)CC[C@@H]32)C1` [U18666A, 3-beta-(2-(diethylamino)ethoxy)androst-5-en-17-one], the “OSC inhibition in words” value at OSC was “potent inhibitor of OSC”.
